Laboratory results reported in patent US8703825B2, “Compounds, use thereof as medicaments, and method of preparation thereof” (Universite de Lorraine, priority 2008, dated 2014).
Entries after “also recorded” stand apart in the source; their conditions may differ.

What was measured:
[1] = test system: Gram-positive and Gram-negative bacteria (reference strains and clinical isolates); assay: Antibacterial activity overall (MIC determination); type: cell-based; conditions: summary of MIC results
From the text: According to the joint recommendations: • of the “Comite de l′Antibiogramme de la Société Française de Microbiologie” (Antibiogram Committee of the French Society of Microbiology) (CA-SFM) [CA-SFM. Communique 2007 (Edition of January 2007). http://www.sfm.asso.fr] and, • of the “Clinical and Laboratory Standards Institute” (CLSI, formerly “National Committee for Clinical Laboratory Standards” or NCCLS) [NCCLS. 2003. Methods for dilution antimicrobial susceptibility tests for bacteria that grow aerobically; approved standard M7-A6, 6th ed. National Committee for Clinical Laboratory Standards, Wayne, Pa., USA.], five reference bacterial strains were used for the study: Escherichia coli ATCC 25922, Pseudomonas aeruginosa ATCC 27853, Staphylococcus aureus ATCC 25923 & ATCC 29213 and Enterococcus faecalis ATCC 29212.
The study also included 5 clinical isolates, obtained from rectal samples and/or from haemoculture: • […] E. coli (EcR1), • methicillin-resistant S. aureus (mecA gene) (SaR1), • vancomycin-resistant E. faecium (vanB gene) (EfR1), • E. faecalis resistant to teicoplanin and to vancomycin (vanA gene) (EfR2), and • P. aeruginosa overexpressing an efflux pump (PaRl).
Procedure for determining the Minimum Inhibitory Concentration (MIC)
The minimum inhibitory concentrations (MIC) were determined by the standardized method of microdilution in liquid medium (96-well microplate, U-shaped bottom, Greiner), in Mueller-Hinton broth, with a final inoculum of 10^5-10^6 CFU/mL, depending on the bacterial species, in accordance with the recommendations of the CLSI.
For the determination of MIC, bacterial suspensions are prepared from an isolated colony, taken from a Mueller-Hinton agar, taken up in 5 mL of Mueller-Hinton broth. After 24 h of growth, the bacterial suspensions are diluted in sterile distilled water in order to obtain an inoculum of 10^5-10^6 CFU/mL. The purity of the bacterial suspensions is tested by isolation on agar and Gram staining.
The results are the mean value of 4 independent experiments.

[2] = test system: HaCaT and/or MRC5 eukaryotic cells; type: cell-based, human
From the text: The eukaryotic cells used in our study are HaCaT cells (human keratinocytes), which were kindly supplied by the Pierre Fabre Institute (Toulouse, France); and MRC-5 cells (human embryonic fibroblasts), which were obtained from the company BioMérieux (Lyons, France). These cells are cultivated in DMEM (“Dulbecco's modified Eagle's medium”, Invitrogen 61965) for the HaCaT cells, and MEM (“modified Eagle's medium”, Invitrogen 41090); 10% of fetal calf serum (FCS, Invitrogen, 10270, Batch 40Q5150K) in a humid chamber at 37° C., under 5% CO2. The HaCaT and MRC-5 cells were seeded at 10^4 cells/well in 96-well plates (Sarstedt 831835). […]
It is based on the reduction of yellow tetrazolium salts to purple crystals of formazan, mainly by mitochondrial dehydrogenases. The quantity of formazan formed is proportional to the number of live cells. […] The absorbance is measured at 540 nm with a reference wavelength at 690 nm, using an ELISA plate reader (Multiskan E X, Thermo Electron Corporation, France). […]
The cytotoxicity test is based on incorporation of a vital dye, Neutral Red, in the lysosomes of the viable cells, after exposure of the cells to different concentrations of the test molecules. The quantity of dye, after extraction from the lysosomes, is quantified by means of a spectrophotometer and compared with that obtained in the case of “control” cells, not exposed to the test molecules. […]

SMILES | antibacterial activity (in words) [1] | effect on viability and cytotoxicity (in words) [2]
[H]/N=C(\N/C(=N/[H])NCCCCCCNC(=N)NC(=N)Nc1ccc(Cl)cc1)Nc1ccc(Cl)cc1 [CHX, chlorhexidine] | broad-spectrum antibacterial activity | 
N=C(N)NCCc1ccc(OCCCCCCOc2ccc(CCNC(=N)N)cc2)cc1 [compound 6, 1,6-bis(4-(2-guanidinoethyl)phenoxy)hexane] | maintains comparable activity on the clinical isolates; also recorded: better overall than hexamidine and is comparable to that of chlorhexidine | slightly less pronounced effect on viability and cytotoxicity
